Experimental data taken from patent US20110236393A1, “MONOCLONAL ANTIBODY PRODUCTION IN B CELLS AND USES THEROF” (Duke University, priority 2008, published 2011).

Tests used:
[1] = system: PBMC infected with EBV (B95-8); assay: EBV transformation efficiency (EBV-induced LCL outgrowth following PBMC infection); format: cell-based, human; conditions: for increase of EBV-mediated transformation efficiency: relative to DMSO (set to 1), LCL positive wells at six weeks post infection
Method: FIGS. 3A and 3B are graphical plots showing the inhibition of ATM and Chk2 kinases increased EBV transformation efficiency. […] The percentages of wells positive for LCLs at six weeks post infection were plotted relative to the amount of B95-8 virus used per well. The efficiency of transformation was determined by the amount of virus necessary to induce 63% positive wells as indicated by a Poisson's distribution. This value was set to 1 for the DMSO treated infections. The difference between DMSO and 5 μM ATMi treated infections was ˜30-fold increased efficiency in the presence of 5 μM ATMi. In FIG. 3B similar experiments were performed using DMSO (diamond), 2 μM Chk2i II (square), or 5 μM Chk2i II (triangle).
Methods of infecting B cells with EBV are known to those of skill in the art. In some embodiments B cells can be infected with EBV as disclosed in the Examples below. In some embodiments primary human peripheral blood mononuclear cells (PBMCs) can be infected with the EBV strain B95-8 with dilutions starting from a multiplicity of infection such that all B cells express the EBV latent gene expression program (approximately 100 particles/cell) through a dilution where no LCLs grow out. Culturing of the EBV-infected cells in RPMI 1640, 10% FCS, antibiotics, and in the presence of cyclosporine to suppress T cell activity, allows for the outgrowth of LCLs at approximately 1-5% efficiency (transformant/infected cell) within 5 weeks. Scoring of LCL outgrowth can be performed using techniques and analytical equipment as is know to those of skill in the art. By way of example and not limitation, scoring of LCL outgrowth can be performed using a Cellomics Vti Array Scan instrument (ThermoFisher Scientific, Waltham, Mass., United States of America) following Calcein-AM live cell fluorescent staining, which allows for an unbiased readout of LCL outgrowth. […]
Likewise, the downstream ATM target, Chk2, was evaluated for its ability to inhibition EBV-mediated proliferation of B cells. […]

[2] = system: CD19+ B cells of CFSE-stained PBMC; assay: CFSE/CD19 B cell proliferation after EBV infection of PBMC; format: cell-based, human; conditions: for B cell proliferation in the absence of EBV: 5 μM, no EBV, six days post treatment; for B-cell proliferation (CD19+/CFSElo cells of total PBMCs): EBV infection in presence of 1, 2, 5, 10 μM inhibitor, 14 days post infection
Excerpt: FIGS. 4A, 4B and 4C show inhibition of ATM or Chk2 increased the proliferation of B cells following EBV infection. FIG. 4A is a dot plot of EBV-mediated proliferation following infection of CFSE-stained PBMC, detected by FACS using CD19-PE staining of B cells and CFSE to monitor cell divisions, at 2 and 6 days post infection. At day 2 post infection there was little proliferation, while by day 6 there was clear B cell proliferation induced by the virus. FIG. 4B is a histogram illustrating the effect of CFSE-stained PBMC infected with EBV in the presence of increasing amounts of ATMi or Chk2i (0.1% DMSO, 1 μM, 2 μM, 5 μM, and 10 μM). The percentage of CD19+/CFSElo cells of total PBMCs at 14 days post infection are plotted. The data shown are the average values from two different normal donors with error bars reflecting the standard error. […] FIG. 4C includes dot plots of the proliferation of CFSE-stained PBMC treated with DMSO, 5 μM ATMi, 5 μM Chk21, or infected with EBV. Six days post treatment/infection cells were stained with CD19-PE antibody and proliferation of B cells was assessed. […] The difference in relative B cell proliferation at day six between FIGS. 4A and 4C was due to normal donor variation.
To further characterize the ATM- and Chk2-dependent block to EBV-mediated transformation, B cell proliferation early after infection was analyzed. PBMC were infected and B cell proliferation was followed over time using the fluorescent dye CFSE and CD19 staining of B cells. CFSE staining assays proliferation as its fluorescence is halved in daughter cells. PBMC were stained with the cell permeable dye carboxyfluorescein succinimidyl ester (CFSE). This dye enters the cytoplasm and is cleaved to fluoresce immediately by intracellular esterases. The dye is maintained in cells at a concentration that divides by half with each cell division. Thus, each two-fold reduction of CFSE fluorescence readout by flow cytometry correlates with one cycle of proliferation. CFSE-labeled PBMC were infected with EBV and B cell proliferation was monitored by CD19-PE or APC labeling cells at different days after infection. Flow cytometry was used to analyze the CD19 and CFSE levels in gated live cells (by forward versus side scatter). The percentage of CD19+ cells that have proliferated (CFSElo) relative to total PBMC cell numbers were plotted to indicate a relative proliferation index in panel B of FIG. 4. Using the CD19 marker and CFSE the proliferation of B cells during the early stages of transformation were specifically followed (FIG. 4A).
The above experiments were followed with washout and time of addition experiments using either ATM or Chk2 inhibitor. EBV-infected B cells were determined to be sensitive to the inhibitors between 4 and 8 days after infection. […]

CD19+ B cells = assay: B cell number after mitogen stimulation (flow cytometry count); format: cell-based, human; conditions: 5 μM Chk2i II vs DMSO, different time points
Method: FIG. 11 is bar graph showing that Chk2 […] the total B cell number following CpG treatment or EBV infection. PBMC were stimulated with CpG 2006 (2.5 μg/mL) or infected with EBV (B95-8, MOI 5). CD19+ B cells were assayed 7 days after treatment of infection using flow cytometry. The total number of viable CD19+ B cells is plotted.
FIG. 12 is a histogram showing that Chk2 inhibition increased B cell number following CpG or CpG system stimulation. Cells were assayed at different time points after stimulation. Circles are CpG treated samples and squares are CpG system treated samples. Open symbols are DMSO-treated and closed symbols are Chk21-treated.
Inhibition of the DDR increased B Cell proliferation in response to mitogens This Example pertains to inhibition of the DDR signaling pathway as a means to increase B cell mitogen induced proliferation. In FIG. 11 inhibition of Chk2 increased the number of B cells proliferating following either CpG DNA treatment or EBV infection as B cell mitogens. […] Total B cell number refers to CD19+ cells gated for viability using forward and side scatter and normalized to polystyrene beads.
The proliferation of cells in response to a combination of mitogenic signals was also assayed in the presence of a DNA damage response inhibitor. […] Cells were counted at different time points using the assay described in Example 10. […]

[3] = system: memory B cells from chronic HIV-1-infected patients; assay: Frequency of IgG positive cell clones of EBV transformed memory B cells; format: cell-based, human; conditions: EBV transformation in presence vs absence of Chk2i II
Excerpt: FIG. 13 is a scatter plot of the frequency of IgG positive cell clones of EBV transformed memory B cells from chronic HIV-1-infected patients in the presence or absence of Chk2i II. An increase in the frequency of IgG positive cell clones in the presence of Chk2i II was observed.
Identification of a HIV-Specific Neutralizing Antibody Following EBV Transformation of Memory B Cells from a Patient Chronically Infected with HIV in the Presence of an Inhibitor of the DNA Damage Response Using the methods of the presently disclosed subject matter, memory B cells from a chronic HIV-1-infected patient were EBV transformed. An increase in the frequency of IgG positive cell clones in the presence of Chk2i II was observed (FIG. 13). It was then determined whether these antibodies would specifically recognize HIV glycoproteins and whether they had biological (e.g. neutralizing) activity. Several potentially HIV-1 neutralizing antibodies were identified during initial screening of the cell culture supernatants. One of these was cloned into a hetero-hybridoma cell line and the IgG mAb was purified (SMB2-2). The mAb bound to HIV-1 gp120 and gp140 proteins (FIG. 14) and captured HIV-1 virions (FIG. 15) and neutralized infection of HIV-1 strains SF162 and MN in vitro (FIG. 16). In preliminary experiments, SMB2-2 neutralized infection of HIV-1 strains SF162 and MN in vitro with an IC50˜10 μg/mL. […]

[4] = system: Chk1 and over 30 other serine/threonine kinases; conditions: Arienti et al., 2005; cited from earlier work
[5] = system: IgG+ memory B cells infected with EBV B95-8; assay: Outgrowth of EBV-infected IgG+ memory B cells (positive wells at 4 weeks); format: cell-based, human; conditions: EBV B95-8 MOI 5, CpG 2.5 μg/mL, Chk2i 5 μM, 1,000 and 300 cells per well
Excerpt: This Example pertains to the evaluation of whether inhibition of the DDR, in particular Chk2, is capable of increasing the efficiency of EBV transformation of memory B cells and whether the frequency of antibody secreting cells will increase. As a positive control, CpG 2006 TLR9 agonist was included either alone or together with Chk21. The CpG employed was CpG 2006 (Hartmann and Krieg, The Journal of Immunology, 2000, 164: 944-952.). The Chk2i employed was Chk2i II (Arienti et al., 2005 J. Med Chem 48:1873-1875).
Normal donor peripheral blood mononuclear cells (PBMC) were sorted to >95% pure IgG+ memory B cells using a scheme of positive selection for CD19 and CD27 and negative selection of IgM, IgD, and IgA. Cells were then infected with EBV B95-8 strain at an MOI of 5 and either DMSO, CpG (2.5 μg/mL), Chk2i (5 μM), or CpG +Chk21. Cells were seeded in 96-well plates with 50,000 lethally irradiated J774A.1 cells at different amounts. […] Wells were analyzed at 4 weeks for outgrowth and positive wells are plotted as a percentage for each condition. […] These were measured by IgG-specific ELISA.

SMILES	increase of EBV-mediated transformation efficiency ([1]; 2 μM inhibitor)	increase of EBV-mediated transformation efficiency ([1]; 5 μM inhibitor)	B cell proliferation in the absence of EBV [2]	B-cell proliferation (CD19+/CFSElo cells of total PBMCs) [2]	B cell number following CpG stimulation (CD19+ B cells)	B cell number following CpG system stimulation (CD19+ B cells; CpG DNA, anti-Ig, IL-2, IL-10)	frequency of IgG positive cell clones [3]	specificity over Chk1 and over 30 other serine/threonine kinases [4]	EBV transformation efficiency (in words) ([1]; 2 μM and 5 μM vs DMSO)	outgrowth of memory B cells (positive wells) [5]
O=c1cc(-c2cccc3c2Sc2ccccc2S3)oc(N2CCOCC2)c1 [ATMi]	approximately 3 fold	~30 fold	No effect	dose dependent increase	–	–	–	–	–	–
CC(=O)c1ccc2c(c1)C=C(c1ccc(Oc3ccc(Cl)cc3)cc1)C2 [Chk2i II]	–	–	No effect	dose dependent increase	increased	increased	increase	exquisite specificity	dramatic and dose-dependent increase	increased the ability of B cells to grow out
